Where a name gives a salt, the structure may show the parent alone.
How the values were obtained:
[1] = DSC and TGA thermal events / weight loss at elevated temperature; type: physicochemical
Procedure: Weight loss at elevated temperature: Differences in thermal characteristics between the Type I and Type II ethylenediamine salts were also observed using differential scanning calorimetry (DSC), thermal gravimetric analysis (TGA) and dynamic vapor sorption (DVS) studies.
DSC and TGA thermograms of the Type II ethylenediamine salt (FIG. 4) indicate minimal loss of residual solvent up to 100° C. (about 0.16% which is controllable by more thorough drying). […] A first endothermic peak appears at about 192° C. with about 5.6% of total weight loss in TGA at corresponding temperature region (140° C. to 210° C.). This weight loss corresponds roughly to the theoretical weight loss (5.99 wt %) of ethylenediamine from the ethylenediamine salt of the compound of formula (I) (which contains 0.50 molar equivalents of ethylenediamine). […] The following endothermic peak is shown at 232° C. which is similar to the melting point of the free-acid form of the compound of formula (I).
There is about 3.8% weight loss at 20° C. to 70° C., which corresponds to the loss of water. A major endotherm at 118° C. to 134° C. corresponds to the melting of the ethylenediamine salt with volatilization, corresponding to the loss of ethanol and some ethylenediamine (about 4.4%). Further loss of ethylenediamine occurs at about 147° C. to 160° C. Above 165° C., melting and decomposition of the free-acid of the compound of formula (I) take place.
DSC was carried out using TA Instruments Q1000 Differential Scanning Calorimeter. Samples were placed in sealed aluminum pans for analysis with an empty aluminum pan as the reference. A heating rate of 10° C./min was employed over a temperature range from 20° C. to 300° C.
TGA was carried out using TA Instruments Q500 Thermogravimetric analyzer. Samples were placed into an platinum sample pan. A heating rate of 10° C./min was employed over a temperature range from 25° C. to 300° C.

[2] = Dynamic vapor sorption (water sorption/desorption); type: physicochemical; conditions: for hygroscopicity (in words): DVS; for moisture gain / water uptake: 85% relative humidity
Procedure: Water sorption/desorption profiles: Water sorption/desorption profiles of the Type II ethylenediamine salt are shown in FIG. 6. […] A similar water sorption/desorption study was carried out on the Type I ethylenediamine salt (FIG. 7). […] The sorption of water caused a form change in the Type I ethylenediamine salt which was observed using XRPD analysis.
Vapor sorption/desorption was carried out using Surface Measurement Systems DVS-HT. Samples were placed into a foil insert placed on a sample pan. […] The equilibrium point of each step was reached when 0.002% of weight change was reached.

[3] = XRPD analysis of crystallinity after heat-treatment; type: physicochemical; conditions: for change in crystallinity (XRPD) as a result of heat treatment: heated at 80° C. under reduced pressure for 15 hours, vs sample kept at about 25° and atmospheric pressure
Procedure: Effect of heat-treatment on crystallinity: Applicants carried out an XRPD analysis of samples of the Type I and Type II ethylenediamine salts exposed to elevated temperature (80° C.), and the results are shown in FIG. 3. In FIG. 3, the top pattern A-1 was obtained on a sample of the Type II ethylenediamine salt maintained at atmospheric pressure and at about 25° prior to measuring the XRPD reflections. The pattern A-2 was obtained from a sample of the Type II ethylenediamine salt which was heated at 80° C. under reduced pressure for 15 hours prior to measuring the XRPD reflections.
The bottom pattern B-1 was obtained on a sample of the Type I ethylenediamine salt which was maintained at atmospheric pressure and at about 25° prior to measuring the XRPD reflections. The pattern B-2 was obtained from a sample of the Type I ethylenediamine salt which was heated at 80° C. under reduced pressure for 15 hours prior to measuring the XRPD reflections.
XRPD data were recorded with a Rigaku Miniflex II powder diffractometer (The Woodlands, Tex.). The radiation was CuKa (30 kV, 15 mA). Data were collected at 25° C. from 3 to 35 degrees 2θ at 0.02 degrees per step and 1.67 sec per step. Samples were prepared on Silicon (510) specimen holders as a thin layer of powdered material without solvent.

[4] = cited from earlier work

| SMILES | total weight loss in TGA (loss of ethylenediamine) ([1]; 140° C. to 210° C., first endothermic peak at about 192° C.) | Onset of event: Melting and loss of ethylenediame ([1]; DSC/TGA, 10° C./min) [°C] | Onset of event: Melting of the free-acid of compound of formula (I) ([1]; DSC/TGA, 10° C./min) [°C] | loss of residual solvent (TGA) ([1]; up to 100° C.) | proneness to hydration compared with the other polymorph [2] | hygroscopicity (in words) ([2]; 25° C.) | moisture gain / water uptake ([2]; 25° C.) | thermal stability compared with the other polymorph (XRPD study) ([3]; 80° C. heat treatment) | change in crystallinity (XRPD) as a result of heat treatment [3] | thermal behavior in DSC and TGA thermograms [1] | weight loss (loss of water) ([1]; 20° C. to 70° C.) | Onset of event: Loss of water ([1]; DSC/TGA, 10° C./min) [°C] | Onset of event: Melting and loss of ethanol and ethylenediamine ([1]; DSC/TGA, 10° C./min) [°C] | weight loss (loss of ethanol and some ethylenediamine) ([1]; major endotherm at 118° C. to 134° C.) | water uptake ([2]; 70% relative humidity, 25° C.) [%] | effect of water sorption on solid form (XRPD) ([2]; after sorption of water) | weight loss in thermogravimetric analysis (attributed to loss of ethanol) ([4]; from 125° C. to 150° C.) | weight loss in thermogravimetric analysis ([4]; from about 30° C. to about 75° C.) |
| --- | --- | --- | --- | --- | --- | --- | --- | --- | --- | --- | --- | --- | --- | --- | --- | --- | --- | --- |
| CN(C)c1nc(Cc2ccc(NC(=O)c3ccc(C(F)(F)F)cc3)cc2)nc(N(C)C)c1CC(=O)O [Type II ethylenediamine salt, ethylenediamine salt of [4,6-bis(dimethylamino)-2-(4-{[4-(trifluoromethyl)benzoyl]amino}benzyl)pyrimidin-5-yl]acetic acid] | about 5.6% | 160 | 225 | about 0.16% | less prone to hydration | non-hygroscopic | about 0.08% | more thermally stable | no noticeable change in the crystallinity |  |  |  |  |  |  |  |  |  |
| CN(C)c1nc(Cc2ccc(NC(=O)c3ccc(C(F)(F)F)cc3)cc2)nc(N(C)C)c1CC(=O)O [Type I ethylenediamine salt, ethylenediamine salt of [4,6-bis(dimethylamino)-2-(4-{[4-(trifluoromethyl)benzoyl]amino}benzyl)pyrimidin-5-yl]acetic acid] |  |  | 210 |  |  | significant moisture sorption | ~7% |  | significant change in the crystallinity | unstable thermal behavior | about 3.8% | 30 | 120 | about 4.4% | ~6 | form change | larger weight loss | slight weight loss |

— patent US20120142715A1, “POLYMORPH OF [4,6-BIS(DIMETHYLAMINO)-2-(4-BENZYL)PYRIMIDIN-5-YL]” (BOEHRINGER INGELHEIM INTERNATIONAL GMBH, priority 2009, published 2012)
